This test addresses T1, APOL1 G2 (Homo sapiens, UniProt O14791, DEL388-389).
T1 construct: expressed in transfected cells; host or cells: HEK293 T-REx clonal line stably expressing GCaMP6f (HEK T-REx/GCaMP6f/APOL1 G2 K6.3), doxycycline induced
T1 sequence (O14791 with tags, fused parts or gaps DEL388-389): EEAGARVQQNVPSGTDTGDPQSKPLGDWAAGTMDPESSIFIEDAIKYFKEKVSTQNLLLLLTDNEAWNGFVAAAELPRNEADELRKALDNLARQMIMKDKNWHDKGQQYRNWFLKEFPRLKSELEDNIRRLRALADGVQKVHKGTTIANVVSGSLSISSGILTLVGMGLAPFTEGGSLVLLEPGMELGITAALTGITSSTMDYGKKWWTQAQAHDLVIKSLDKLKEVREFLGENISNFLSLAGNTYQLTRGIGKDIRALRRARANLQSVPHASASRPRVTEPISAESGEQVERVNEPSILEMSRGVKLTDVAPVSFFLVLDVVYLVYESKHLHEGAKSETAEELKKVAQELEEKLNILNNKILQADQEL
Nature of the test: APOL1-mediated calcium transport (calcium influx) assay, HEK T-REx/GCaMP6f/APOL1 G2 K6.3 cells, FLIPR TETRA. As to conditions: prevention of calcium influx; geometric mean of at least 2 assay runs; † = average of a technical replicate from a single assay run. The test is classed as cell-based. The method, boiled down:
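A HEK293 T-REx clone stably expressing GCaMP6f had APOL1 G2 induced with doxycycline (20 ng/mL solution added) for 6 h. Cells were then washed into Ca2+-free Tyrode's buffer (pH 7.4) and preincubated with compounds (duplicate 8-point) for 10 min at room temperature. Ca2+ injection to 5 mM final produced FLIPR GCaMP fluorescence, giving AC50 for influx inhibition (geometric mean, ≥2 runs).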
In the case of `C[C@@H](COc1ccc(S(C)(=O)=O)cc1)N1CCC2(CC1)C(=O)Nc1ccc(Cl)cc12` (single isomer, unassigned) [Compound 10], the AC50 came out at 1270 nM.

For the molecule `C[C@@H](COc1ccc(S(C)(=O)=O)cc1)N1CCC2(CC1)C(=O)Nc1ccccc12` (single isomer, unassigned) [Compound 12], the AC50 was less than 457 nM.

For `C[C@@H](CN1CCC2(CC1)C(=O)Nc1ccccc12)Oc1ccc(S(C)(=O)=O)cc1` (single isomer, unassigned) [Compound 13], the AC50 was less than 587 nM.

Take `O=C1NCC2c3ccc(OCCN4CCC5(CC4)C(=O)Nc4ccc(Cl)cc45)cc3CCN12` (single isomer, unassigned) [Compound 116, (S) or (R)-5-chloro-1′-[2-({3-oxo-1H,2H,3H,5H,6H,10bH-imidazo[4,3-a]isoquinolin-8-yl}oxy)ethyl]-1,2-dihydrospiro[indole-3,4′-piperidin]-2-one]: the AC50 turned out to be 466 nM.

Take `O=C1NCC2c3ccc(OCCN4CCC5(CC4)C(=O)Nc4ccc(Cl)cc45)cc3CCN12` (single isomer, unassigned) [Compound 117, (R) or (S)-5-chloro-1′-[2-({3-oxo-1H,2H,3H,5H,6H,10bH-imidazo[4,3-a]isoquinolin-8-yl}oxy)ethyl]-1,2-dihydrospiro[indole-3,4′-piperidin]-2-one]: the AC50 is 396 nM.

With `N#Cc1ccc2c(c1)C1(CCN(CCOc3ccc4c(c3)CCN3C(=O)NCC43)CC1)C(=O)N2` (single isomer, unassigned) [Compound 120, (R) or (S)-2-oxo-1′-[2-({3-oxo-1H,2H,3H,5H,6H,10bH-imidazo[4,3-a]isoquinolin-8-yl}oxy)ethyl]-1,2-dihydrospiro[indole-3,4′-piperidine]-5-carbonitrile], the AC50 amounted to 1190 nM.

As for `O=C1CCC2c3ccc(OCCN4CCC5(CC4)C(=O)Nc4ccc(Cl)cc45)cc3CCN12` (single isomer, unassigned) [Compound 122, (S) or (R)-5-chloro-1′-[2-({3-oxo-1H,2H,3H,5H,6H,10bH-pyrrolo[2,1-a]isoquinolin-8-yl}oxy)ethyl]-1,2-dihydrospiro[indole-3,4′-piperidin]-2-one], the AC50 was found to be 616 nM.

Consider `O=C1CCC2c3ccc(OCCN4CCC5(CC4)C(=O)Nc4ccc(Cl)cc45)cc3CCN12` (single isomer, unassigned) [Compound 123, (R) or (S)-5-chloro-1′-[2-({3-oxo-1H,2H,3H,5H,6H,10bH-pyrrolo[2,1-a]isoquinolin-8-yl}oxy)ethyl]-1,2-dihydrospiro[indole-3,4′-piperidin]-2-one], for which the AC50 was determined as 796 nM.

Turning to `CC(c1ccc(OCCN2CCC3(CC2)C(=O)Nc2ccc(C#N)cc23)cc1)S(C)(=O)=O` (single isomer, unassigned) [Compound 134, (S) or (R)-1′-{2-[4-(1-methanesulfonylethyl)phenoxy]ethyl}-2-oxo-1,2-dihydrospiro[indole-3,4′-piperidine]-5-carbonitrile], the AC50 was found to be 879 nM.

With `CC(c1ccc(OCCN2CCC3(CC2)C(=O)Nc2ccc(C#N)cc23)cc1)S(C)(=O)=O` (single isomer, unassigned) [Compound 135, (R) or (S)-1′-{2-[4-(1-methanesulfonylethyl)phenoxy]ethyl}-2-oxo-1,2-dihydrospiro[indole-3,4′-piperidine]-5-carbonitrile], the AC50 was found to be 763 nM.

For the molecule `CC(c1c(F)cc(OCCN2CCC3(CC2)C(=O)Nc2ccc(C#N)cc23)cc1F)S(C)(=O)=O` (single isomer, unassigned) [Compound 138, (S) or (R)-1′-{2-[3,5-difluoro-4-(1-methanesulfonylethyl)phenoxy]ethyl}-2-oxo-1,2-dihydrospiro[indole-3,4′-piperidine]-5-carbonitrile], the AC50 is 1220 nM.

For `CC(c1c(F)cc(OCCN2CCC3(CC2)C(=O)Nc2ccc(C#N)cc23)cc1F)S(C)(=O)=O` (single isomer, unassigned) [Compound 139, (R) or (S)-1′-{2-[3,5-difluoro-4-(1-methanesulfonylethyl)phenoxy]ethyl}-2-oxo-1,2-dihydrospiro[indole-3,4′-piperidine]-5-carbonitrile], the AC50 came out at 1120 nM.

Turning to `CC(c1c(F)cc(OCCN2CCC3(CC2)C(=O)Nc2ccc(Cl)cc23)cc1F)S(C)(=O)=O` (single isomer, unassigned) [Compound 142, (S) or (R)-5-chloro-1′-{2-[3,5-difluoro-4-(1-methanesulfonylethyl)phenoxy]ethyl}-1,2-dihydrospiro[indole-3,4′-piperidin]-2-one], the AC50 was found to be 845 nM.

For `CC(c1c(F)cc(OCCN2CCC3(CC2)C(=O)Nc2ccc(Cl)cc23)cc1F)S(C)(=O)=O` (single isomer, unassigned) [Compound 143, (R) or (S)-5-chloro-1′-{2-[3,5-difluoro-4-(1-methanesulfonylethyl)phenoxy]ethyl}-1,2-dihydrospiro[indole-3,4′-piperidin]-2-one], the AC50 is 701 nM.

Turning to `CN=S(C)(=O)c1ccc(OCCN2CCC3(CC2)C(=O)Nc2ccc(Cl)cc23)cc1` (single isomer, unassigned) [Compound 148, (S) or (R)-5-chloro-1′-(2-{4-[methyl(methylimino)oxo-λ^6-sulfanyl]phenoxy}ethyl)-1,2-dihydrospiro[indole-3,4′-piperidin]-2-one], the AC50 was 960 nM.

In the case of `CN=S(C)(=O)c1ccc(OCCN2CCC3(CC2)C(=O)Nc2ccc(Cl)cc23)cc1` (single isomer, unassigned) [Compound 149, (R) or (S)-5-chloro-1′-(2-{4-[methyl(methylimino)oxo-λ^6-sulfanyl]phenoxy}ethyl)-1,2-dihydrospiro[indole-3,4′-piperidin]-2-one], the AC50 was 971 nM.

As to `CN=S(C)(=O)c1ccc(OCCN2CCC3(CC2)C(=O)Nc2ccc(C#N)cc23)cc1` (single isomer, unassigned) [Compound 151, (S) or (R)-1′-(2-{4-[methyl(methylimino)oxo-λ^6-sulfanyl]phenoxy}ethyl)-2-oxo-1,2-dihydrospiro[indole-3,4′-piperidine]-5-carbonitrile], the half-maximal activity concentration (AC50) amounted to 1740 nM.

Take `CN=S(C)(=O)c1ccc(OCCN2CCC3(CC2)C(=O)Nc2ccc(C#N)cc23)cc1` (single isomer, unassigned) [Compound 152, (R) or (S)-1′-(2-{4-[methyl(methylimino)oxo-λ^6-sulfanyl]phenoxy}ethyl)-2-oxo-1,2-dihydrospiro[indole-3,4′-piperidine]-5-carbonitrile]: the AC50 turned out to be 1820 nM.

As to `O=C1Nc2ccc(Cl)cc2C12CCN(CCOc1ccc(C3CCCS3(=O)=O)cc1)CC2` (single isomer, unassigned) [Compound 176, (S) or (R)-2-[4-(2-{5-chloro-2-oxo-1,2-dihydrospiro[indole-3,4′-piperidin]-1′-yl}ethoxy)phenyl]-1λ^6-thiolane-1,1-dione], the AC50 worked out at 547 nM.

On to `O=C1Nc2ccc(Cl)cc2C12CCN(CCOc1ccc(C3CCCS3(=O)=O)cc1)CC2` (single isomer, unassigned) [Compound 177, (R) or (S)-2-[4-(2-{5-chloro-2-oxo-1,2-dihydrospiro[indole-3,4′-piperidin]-1′-yl}ethoxy)phenyl]-1λ^6-thiolane-1,1-dione], for which the concentration at half-maximal activity (AC50) amounted to 670 nM.

On to `CS(=O)(=O)c1ccc(OCCN2CCC3(CC2)C(=O)Nc2c(C#N)cc(Cl)cc23)cc1` [Compound 9, 5-chloro-1′-[2-(4-methanesulfonylphenoxy)ethyl]-2-oxo-1,2-dihydrospiro[indole-3,4′-piperidine]-7-carbonitrile], for which the AC50 was 1310 nM.

As for `CS(=O)(=O)CCCn1ncc2cc(OCCN3CCC4(CC3)C(=O)Nc3ccc(Cl)cc34)ccc21` [Compound 14, 5-chloro-1′-(2-{[1-(3-methanesulfonylpropyl)-1H-indazol-5-yl]oxy}ethyl)-1,2-dihydrospiro[indole-3,4′-piperidin]-2-one], the AC50 is 704 nM.

`O=C1Nc2ccc(Cl)cc2C12CCN(CCOc1ccc3c(cnn3C3COC3)c1)CC2` [Compound 15, 5-chloro-1′-(2-{[1-(oxetan-3-yl)-1H-indazol-5-yl]oxy}ethyl)-1,2-dihydrospiro[indole-3,4′-piperidin]-2-one]: the AC50 was 654 nM.

For `CC(C)n1ncc2cc(OCCN3CCC4(CC3)C(=O)Nc3ccc(Cl)cc34)ccc21` [Compound 16, 5-chloro-1′-(2-{[1-(propan-2-yl)-1H-indazol-5-yl]oxy}ethyl)-1,2-dihydrospiro[indole-3,4′-piperidin]-2-one], the AC50 amounted to 1160 nM.

As for `O=C1Nc2ccc(Cl)cc2C12CCN(CCOc1ccc(S(=O)(=O)[C@H]3C[C@@H](O)C3)cc1)CC2` [Compound 17, 5-chloro-1′-[2-(4-{[(cis)-3-hydroxycyclobutyl]sulfonyl}phenoxy)ethyl]-1,2-dihydrospiro[indole-3,4′-piperidin]-2-one], the AC50 is 1100 nM.

In the case of `O=C1CCc2cc(OCCN3CCC4(CC3)C(=O)Nc3ccc(Cl)cc34)ccc2N1C1COC1` [Compound 99, 5-chloro-1′-(2-{[1-(oxetan-3-yl)-2-oxo-1,2,3,4-tetrahydroquinolin-6-yl]oxy}ethyl)-1,2-dihydrospiro[indole-3,4′-piperidin]-2-one], the AC50 came to 643 nM.

What is called AC50 is the concentration at which the activity in the assay is half-maximal.

The values above are taken from US12344610B2, “APOL1 inhibitors and methods of use” (Maze Therapeutics, Inc., priority 2022, dated 2025).
